From ChEMBL document CHEMBL5291721, “A preclinical secondary pharmacology resource illuminates target-adverse drug reaction associations of marketed drugs” (Nat Commun, 2023)

How the values were obtained:
[1] = molecular target: Neuronal acetylcholine receptor subunit alpha-4 (Homo sapiens, UniProt P43681)
[2] = molecular target: Sodium-dependent noradrenaline transporter (Homo sapiens, UniProt P23975)
[3] = molecular target: T1, Equilibrative nucleoside transporter 1 (Homo sapiens, UniProt Q99808)
T1 sequence (Q99808 whole entry): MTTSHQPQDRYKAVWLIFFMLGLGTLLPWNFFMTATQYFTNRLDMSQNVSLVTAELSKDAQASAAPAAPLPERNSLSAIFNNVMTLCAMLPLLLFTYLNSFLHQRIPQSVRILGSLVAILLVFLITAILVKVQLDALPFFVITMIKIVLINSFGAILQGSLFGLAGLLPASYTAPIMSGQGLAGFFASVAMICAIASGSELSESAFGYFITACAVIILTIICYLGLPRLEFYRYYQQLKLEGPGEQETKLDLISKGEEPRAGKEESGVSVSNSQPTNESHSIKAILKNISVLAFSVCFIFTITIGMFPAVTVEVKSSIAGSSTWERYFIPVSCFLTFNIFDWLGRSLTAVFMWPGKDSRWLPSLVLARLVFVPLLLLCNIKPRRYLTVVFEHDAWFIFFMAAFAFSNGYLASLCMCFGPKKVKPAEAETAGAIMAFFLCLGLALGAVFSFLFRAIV

[4] = molecular target: T2, Gamma-aminobutyric acid receptor subunit alpha-1 (Rattus norvegicus, UniProt P62813)
[5] = molecular target: Histamine H1 receptor (Homo sapiens, UniProt P35367)
[6] = molecular target: D(3) dopamine receptor (Homo sapiens, UniProt P35462)
[7] = molecular target: T3, Type-1 angiotensin II receptor (Homo sapiens, UniProt P30556)
T3 sequence (P30556 whole entry): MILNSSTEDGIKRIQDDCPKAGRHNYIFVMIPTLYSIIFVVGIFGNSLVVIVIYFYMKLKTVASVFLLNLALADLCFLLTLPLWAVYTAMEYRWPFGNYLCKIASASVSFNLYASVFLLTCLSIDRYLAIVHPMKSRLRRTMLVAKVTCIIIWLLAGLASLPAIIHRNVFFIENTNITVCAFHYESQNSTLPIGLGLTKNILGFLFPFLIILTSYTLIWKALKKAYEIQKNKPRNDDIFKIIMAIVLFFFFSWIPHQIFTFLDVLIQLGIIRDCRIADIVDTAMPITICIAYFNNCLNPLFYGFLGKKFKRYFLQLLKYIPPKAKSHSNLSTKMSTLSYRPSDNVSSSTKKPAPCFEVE

[8] = molecular target: T2, Gamma-aminobutyric acid receptor subunit alpha-1; format: functional
[9] = molecular target: Sodium-dependent serotonin transporter (Homo sapiens, UniProt P31645)
[10] = molecular target: T4, 5-hydroxytryptamine receptor 3A (Homo sapiens, UniProt P46098); format: functional
T4 sequence (P46098 whole entry): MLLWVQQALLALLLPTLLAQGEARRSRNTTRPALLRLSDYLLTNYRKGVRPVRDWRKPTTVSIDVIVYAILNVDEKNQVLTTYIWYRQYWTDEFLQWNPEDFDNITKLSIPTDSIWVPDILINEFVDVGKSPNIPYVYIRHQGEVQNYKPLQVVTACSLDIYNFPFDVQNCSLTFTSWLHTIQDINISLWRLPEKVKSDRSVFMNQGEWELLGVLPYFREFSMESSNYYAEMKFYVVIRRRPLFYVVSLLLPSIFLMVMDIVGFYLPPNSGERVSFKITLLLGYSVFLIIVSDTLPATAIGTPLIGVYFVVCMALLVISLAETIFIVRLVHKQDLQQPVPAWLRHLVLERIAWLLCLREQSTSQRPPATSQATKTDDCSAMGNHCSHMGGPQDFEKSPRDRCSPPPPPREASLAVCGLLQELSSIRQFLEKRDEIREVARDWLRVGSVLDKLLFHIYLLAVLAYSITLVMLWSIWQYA

[11] = molecular target: T5, Neuropeptide Y receptor type 1 (Homo sapiens, UniProt P25929)
T5 sequence (P25929 whole entry): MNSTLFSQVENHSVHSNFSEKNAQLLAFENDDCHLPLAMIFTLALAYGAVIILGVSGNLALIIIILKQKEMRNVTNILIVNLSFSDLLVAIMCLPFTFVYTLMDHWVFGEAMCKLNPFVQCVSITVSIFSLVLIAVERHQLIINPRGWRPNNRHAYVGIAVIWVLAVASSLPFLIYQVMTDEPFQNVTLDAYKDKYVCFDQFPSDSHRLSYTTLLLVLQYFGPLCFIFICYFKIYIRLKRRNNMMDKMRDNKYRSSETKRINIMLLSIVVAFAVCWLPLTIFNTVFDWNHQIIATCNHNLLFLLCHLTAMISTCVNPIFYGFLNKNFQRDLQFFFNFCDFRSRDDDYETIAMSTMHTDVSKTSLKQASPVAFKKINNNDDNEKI

[12] = molecular target: Motilin receptor (Homo sapiens, UniProt O43193)
[13] = molecular target: Histamine H3 receptor (Homo sapiens, UniProt Q9Y5N1)
[14] = molecular target: Glutamate receptor ionotropic, NMDA 1 (Rattus norvegicus, UniProt P35439)
[15] = molecular target: Histamine H2 receptor (Homo sapiens, UniProt P25021); format: functional, cell-based
Also: assay procedure not described here.

Chain of D(3) dopamine receptor (P35462 whole entry): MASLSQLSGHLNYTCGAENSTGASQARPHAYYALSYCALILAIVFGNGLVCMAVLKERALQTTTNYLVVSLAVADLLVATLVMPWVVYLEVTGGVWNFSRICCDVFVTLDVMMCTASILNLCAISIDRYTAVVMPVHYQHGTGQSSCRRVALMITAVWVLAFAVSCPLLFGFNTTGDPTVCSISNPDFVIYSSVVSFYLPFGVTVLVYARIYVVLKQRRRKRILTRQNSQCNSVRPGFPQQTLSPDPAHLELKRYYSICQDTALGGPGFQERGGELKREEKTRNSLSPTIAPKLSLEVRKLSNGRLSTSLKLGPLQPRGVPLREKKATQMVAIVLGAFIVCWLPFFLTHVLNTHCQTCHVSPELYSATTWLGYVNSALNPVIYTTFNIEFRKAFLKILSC
T2 sequence (P62813 whole entry): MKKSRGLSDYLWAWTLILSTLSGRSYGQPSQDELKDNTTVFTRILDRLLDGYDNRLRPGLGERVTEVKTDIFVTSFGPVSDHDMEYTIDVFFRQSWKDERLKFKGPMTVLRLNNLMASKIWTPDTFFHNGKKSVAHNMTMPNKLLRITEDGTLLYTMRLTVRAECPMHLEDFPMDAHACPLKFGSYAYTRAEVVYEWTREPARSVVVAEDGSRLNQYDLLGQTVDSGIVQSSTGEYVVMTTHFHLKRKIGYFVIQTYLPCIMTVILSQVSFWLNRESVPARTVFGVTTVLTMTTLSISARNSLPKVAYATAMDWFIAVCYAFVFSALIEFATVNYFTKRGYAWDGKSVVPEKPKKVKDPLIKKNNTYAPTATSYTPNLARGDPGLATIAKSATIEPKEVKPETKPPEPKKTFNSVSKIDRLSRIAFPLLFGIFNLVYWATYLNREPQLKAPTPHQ
Chain of Sodium-dependent noradrenaline transporter (P23975 whole entry): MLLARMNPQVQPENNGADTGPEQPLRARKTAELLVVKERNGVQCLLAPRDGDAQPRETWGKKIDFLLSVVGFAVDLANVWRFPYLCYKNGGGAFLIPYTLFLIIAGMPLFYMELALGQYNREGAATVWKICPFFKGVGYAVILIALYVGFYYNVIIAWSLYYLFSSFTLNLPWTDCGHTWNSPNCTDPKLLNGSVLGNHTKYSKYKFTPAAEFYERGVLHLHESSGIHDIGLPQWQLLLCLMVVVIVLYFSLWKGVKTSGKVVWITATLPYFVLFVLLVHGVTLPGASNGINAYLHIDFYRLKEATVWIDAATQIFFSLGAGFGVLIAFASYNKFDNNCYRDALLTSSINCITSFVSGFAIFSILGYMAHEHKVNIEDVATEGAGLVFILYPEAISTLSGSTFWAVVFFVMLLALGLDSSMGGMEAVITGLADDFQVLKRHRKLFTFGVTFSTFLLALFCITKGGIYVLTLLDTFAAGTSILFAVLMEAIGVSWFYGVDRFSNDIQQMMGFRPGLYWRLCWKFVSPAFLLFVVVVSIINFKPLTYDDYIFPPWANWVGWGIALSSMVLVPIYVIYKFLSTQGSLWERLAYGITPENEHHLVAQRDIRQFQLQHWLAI
Chain of Histamine H1 receptor (P35367 whole entry): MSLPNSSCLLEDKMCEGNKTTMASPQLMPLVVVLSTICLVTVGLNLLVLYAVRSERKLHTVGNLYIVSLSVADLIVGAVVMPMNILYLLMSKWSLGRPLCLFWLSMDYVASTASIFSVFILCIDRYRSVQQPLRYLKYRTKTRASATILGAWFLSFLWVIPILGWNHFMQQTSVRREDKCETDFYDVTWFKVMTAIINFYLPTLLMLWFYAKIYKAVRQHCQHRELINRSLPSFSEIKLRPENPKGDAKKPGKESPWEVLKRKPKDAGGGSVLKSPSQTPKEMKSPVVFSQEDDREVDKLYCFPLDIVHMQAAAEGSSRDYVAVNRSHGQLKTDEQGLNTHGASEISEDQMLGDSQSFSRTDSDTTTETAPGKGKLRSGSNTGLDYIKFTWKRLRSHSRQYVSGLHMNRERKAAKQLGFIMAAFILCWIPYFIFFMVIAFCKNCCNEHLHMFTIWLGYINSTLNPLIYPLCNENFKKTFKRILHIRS
Chain of Histamine H3 receptor (Q9Y5N1 whole entry): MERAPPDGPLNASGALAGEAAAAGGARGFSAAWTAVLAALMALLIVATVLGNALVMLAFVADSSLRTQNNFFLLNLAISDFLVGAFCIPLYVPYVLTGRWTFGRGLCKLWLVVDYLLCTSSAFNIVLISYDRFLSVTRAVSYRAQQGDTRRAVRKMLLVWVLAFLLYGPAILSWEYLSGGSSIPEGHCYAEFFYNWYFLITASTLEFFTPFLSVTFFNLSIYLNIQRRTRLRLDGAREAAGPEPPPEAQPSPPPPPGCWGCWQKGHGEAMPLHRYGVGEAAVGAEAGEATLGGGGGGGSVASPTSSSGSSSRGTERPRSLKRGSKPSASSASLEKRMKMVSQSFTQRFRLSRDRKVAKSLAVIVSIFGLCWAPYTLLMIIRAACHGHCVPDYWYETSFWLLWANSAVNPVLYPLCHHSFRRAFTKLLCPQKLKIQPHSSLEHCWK
Chain of Neuronal acetylcholine receptor subunit alpha-4 (P43681 whole entry): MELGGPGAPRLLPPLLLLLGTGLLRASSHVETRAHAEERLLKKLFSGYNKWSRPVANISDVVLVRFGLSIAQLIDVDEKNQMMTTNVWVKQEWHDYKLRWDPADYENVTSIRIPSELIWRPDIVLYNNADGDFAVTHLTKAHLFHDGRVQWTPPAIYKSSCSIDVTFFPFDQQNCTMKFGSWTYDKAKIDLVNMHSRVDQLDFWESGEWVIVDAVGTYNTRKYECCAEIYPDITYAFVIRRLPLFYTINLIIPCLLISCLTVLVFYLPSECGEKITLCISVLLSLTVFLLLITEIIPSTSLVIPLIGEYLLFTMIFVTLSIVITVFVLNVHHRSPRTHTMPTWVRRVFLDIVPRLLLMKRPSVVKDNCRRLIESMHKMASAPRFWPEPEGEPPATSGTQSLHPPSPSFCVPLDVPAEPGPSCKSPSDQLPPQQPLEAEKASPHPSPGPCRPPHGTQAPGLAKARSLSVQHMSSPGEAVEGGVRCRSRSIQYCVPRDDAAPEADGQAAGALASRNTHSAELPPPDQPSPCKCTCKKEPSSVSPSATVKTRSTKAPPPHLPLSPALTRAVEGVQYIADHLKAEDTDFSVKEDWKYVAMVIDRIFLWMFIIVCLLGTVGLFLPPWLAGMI
Chain of Motilin receptor (O43193 whole entry): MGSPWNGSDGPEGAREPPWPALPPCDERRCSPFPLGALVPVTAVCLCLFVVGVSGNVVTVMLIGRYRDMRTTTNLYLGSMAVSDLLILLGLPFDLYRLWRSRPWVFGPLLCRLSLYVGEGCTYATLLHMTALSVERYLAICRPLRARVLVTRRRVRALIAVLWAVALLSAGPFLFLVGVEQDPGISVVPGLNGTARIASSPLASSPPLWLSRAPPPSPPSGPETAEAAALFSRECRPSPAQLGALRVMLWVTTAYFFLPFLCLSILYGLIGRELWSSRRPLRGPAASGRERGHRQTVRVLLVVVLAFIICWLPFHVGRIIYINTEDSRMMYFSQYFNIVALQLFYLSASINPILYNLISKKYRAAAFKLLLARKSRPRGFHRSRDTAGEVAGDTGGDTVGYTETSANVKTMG
Chain of Sodium-dependent serotonin transporter (P31645 whole entry): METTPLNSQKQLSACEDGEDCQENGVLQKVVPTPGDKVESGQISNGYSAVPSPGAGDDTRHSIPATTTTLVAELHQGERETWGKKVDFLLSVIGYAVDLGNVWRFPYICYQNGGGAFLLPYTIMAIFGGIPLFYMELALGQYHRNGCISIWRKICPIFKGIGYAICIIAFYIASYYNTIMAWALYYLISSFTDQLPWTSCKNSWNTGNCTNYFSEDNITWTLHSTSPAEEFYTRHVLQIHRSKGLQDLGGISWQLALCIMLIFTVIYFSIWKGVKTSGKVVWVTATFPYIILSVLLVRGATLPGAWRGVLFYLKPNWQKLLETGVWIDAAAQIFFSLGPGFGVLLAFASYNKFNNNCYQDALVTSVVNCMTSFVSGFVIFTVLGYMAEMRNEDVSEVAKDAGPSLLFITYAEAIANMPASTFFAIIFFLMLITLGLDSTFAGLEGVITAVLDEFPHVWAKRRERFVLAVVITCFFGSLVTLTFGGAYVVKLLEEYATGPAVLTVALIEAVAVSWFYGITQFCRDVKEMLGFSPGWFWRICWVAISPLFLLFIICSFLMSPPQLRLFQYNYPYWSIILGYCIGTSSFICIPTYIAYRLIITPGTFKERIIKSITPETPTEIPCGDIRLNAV
Chain of Histamine H2 receptor (P25021 whole entry): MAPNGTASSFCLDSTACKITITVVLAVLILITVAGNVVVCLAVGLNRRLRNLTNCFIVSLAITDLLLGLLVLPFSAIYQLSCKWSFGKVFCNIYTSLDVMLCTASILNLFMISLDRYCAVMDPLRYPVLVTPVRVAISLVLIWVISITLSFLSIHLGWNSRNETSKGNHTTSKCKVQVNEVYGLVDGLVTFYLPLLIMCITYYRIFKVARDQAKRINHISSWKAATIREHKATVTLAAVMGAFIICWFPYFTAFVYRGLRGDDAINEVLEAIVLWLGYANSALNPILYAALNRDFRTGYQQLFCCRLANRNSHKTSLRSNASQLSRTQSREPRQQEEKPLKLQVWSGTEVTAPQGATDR

| AC50 [1] [µM] | AC50 [2] [µM] | AC50 [3] [µM] | AC50 [4] [µM] | AC50 [5] [µM] | AC50 [6] [µM] | AC50 [7] [µM] | AC50 [8] [µM] | AC50 [9] [µM] | AC50 [10] [µM] | AC50 [11] [µM] | AC50 [12] [µM] | AC50 [13] [µM] | AC50 [14] [µM] | AC50 [15] [µM] | Compound |
| --- | --- | --- | --- | --- | --- | --- | --- | --- | --- | --- | --- | --- | --- | --- | --- |
| > 30 | > 30 | > 30 | > 30 | > 30 | > 30 | > 30 | > 30 | > 30 | > 30 | > 30 | 7.8 | > 30 | > 30 | – | C=C[C@@]1(C)CC(=O)[C@]2(O)[C@@]3(C)[C@@H](O)CCC(C)(C)[C@@H]3[C@H](OC(=O)CCN(C)C)[C@H](OC(C)=O)[C@@]2(C)O1 |
| > 10 | > 10 | > 10 | > 10 | > 10 | > 30 | > 10 | > 10 | > 10 | > 30 | > 10 | > 10 | > 10 | > 10 | > 10 | CC(=O)OCC(=O)[C@@]1(O)CC[C@H]2[C@@H]3CCC4=CC(=O)CC[C@]4(C)C3=CC[C@@]21C [ANECORTAVE ACETATE] |
| > 30 | > 30 | > 30 | > 30 | > 30 | 14.4 | > 30 | > 30 | > 30 | > 30 | > 30 | > 30 | > 30 | > 30 | > 30 | CCN(CC)C(=O)C1CN2CCc3cc(OC)c(OC)cc3C2CC1OC(C)=O (centres undefined) [BENZQUINAMIDE] |
| > 30 | > 30 | > 30 | – | > 30 | – | > 30 | – | > 30 | – | > 30 | > 30 | > 30 | – | > 30 | C=CC1=C(C(=O)O)N2C(=O)[C@@H](NC(=O)/C(=N\OCC(=O)O)c3csc(N)n3)[C@H]2SC1 [CEFIXIME] |
| > 30 | > 30 | > 30 | > 30 | > 30 | > 30 | > 30 | > 30 | > 30 | > 30 | > 30 | > 30 | > 30 | > 30 | > 30 | CCC(C)(Oc1ccc(C2(c3ccc(OC(C)(CC)C(=O)O)cc3)CCCCC2)cc1)C(=O)O (centres undefined) [CLINOFIBRATE] |
| > 30 | > 30 | > 30 | > 30 | > 30 | > 30 | > 30 | > 30 | > 30 | > 30 | > 30 | > 30 | > 30 | > 30 | > 30 | CCCCC[C@H](O)/C=C/[C@H]1[C@H](O)CC(=O)[C@@H]1C/C=C\CCCC(=O)O [DINOPROSTONE] |
| > 30 | > 30 | > 30 | > 30 | > 30 | > 30 | > 30 | > 30 | > 30 | > 30 | > 30 | > 30 | > 30 | > 30 | > 30 | CC(C)c1cc2c(cc1S(=O)(=O)O)[C@@]1(C)CCC[C@@](C)(C(=O)O)[C@@H]1CC2 [ECABET] |
| > 30 | > 30 | > 30 | > 30 | > 30 | > 30 | > 30 | > 30 | > 30 | > 30 | > 30 | > 30 | > 30 | > 30 | > 30 | CCCN(CC)C(CC)C(=O)Nc1c(C)cccc1C (centres undefined) [ETIDOCAINE] |
| > 10 | > 30 | > 30 | > 10 | > 10 | > 30 | > 30 | > 10 | > 30 | > 30 | > 30 | > 10 | > 10 | > 10 | > 10 | CC#CCn1c(N2CCC[C@@H](N)C2)nc2c1c(=O)n(Cc1nc(C)c3ccccc3n1)c(=O)n2C [LINAGLIPTIN] |
| > 30 | > 30 | > 30 | > 30 | > 30 | > 30 | > 30 | 15 | > 30 | > 30 | > 30 | > 30 | > 30 | > 30 | > 30 | CC(C)OC(=O)C(C(=O)OC(C)C)=C1SC=CS1 [MALOTILATE] |
| > 30 | > 30 | > 30 | > 30 | > 30 | > 30 | > 30 | > 30 | > 30 | > 30 | > 30 | > 30 | > 30 | > 30 | > 30 | CN(c1nccc(=O)[nH]1)C1CCN(c2nc3ccccc3n2Cc2ccc(F)cc2)CC1 [MIZOLASTINE] |
| > 30 | > 30 | – | > 30 | > 30 | > 30 | > 30 | > 30 | > 30 | > 30 | > 30 | > 30 | > 30 | > 30 | > 30 | Cc1ccc2c(-c3ccccc3)nc(=O)n(C(C)C)c2c1 [PROQUAZONE] |
| > 30 | – | – | > 30 | > 30 | > 30 | > 30 | > 30 | > 30 | > 30 | > 30 | > 30 | > 30 | > 30 | > 30 | CN1CCN(c2c(F)cc3c(=O)c(C(=O)O)cn4c3c2SCC4)CC1 [RUFLOXACIN] |
| 9.6 | > 30 | > 30 | > 30 | – | 20 | > 30 | > 30 | 3.4 | > 30 | > 30 | > 30 | 2.1 | > 30 | > 30 | COc1cc2c(Nc3ccc(Br)cc3F)ncnc2cc1OCC1CCN(C)CC1 [VANDETANIB] |

| Compound | AC50 [1] [µM] | AC50 [2] [µM] | AC50 [3] [µM] | AC50 [4] [µM] | AC50 [5] [µM] | AC50 [6] [µM] | AC50 [7] [µM] | AC50 [8] [µM] | AC50 [9] [µM] | AC50 [10] [µM] | AC50 [11] [µM] | AC50 [12] [µM] | AC50 [13] [µM] | AC50 [14] [µM] | AC50 [15] [µM] |
| --- | --- | --- | --- | --- | --- | --- | --- | --- | --- | --- | --- | --- | --- | --- | --- |
| C[C@@H]1C[C@H]2[C@@H]3C[C@H](F)C4=CC(=O)C=C[C@]4(C)[C@@]3(F)[C@@H](O)C[C@]2(C)[C@H]1C(=O)CO [DIFLUCORTOLONE] | – | > 30 | – | – | > 30 | > 30 | – | – | > 30 | – | – | – | – | – | – |
